Where two headings read alike, the source gives them in different places.
What was measured:
[1] = tested on: Aβ42/Aβtotal in HEK293 cells stably overexpressing human APP; type: cell-based
[2] = tested on: Aβ42/Aβtotal in CHO cells stably overexpressing human APP; assay: Aβ sandwich ELISA, CHO cells stably overexpressing human APP; type: cell-based, Chinese hamster

## COc1ccc(CCCOC(Cn2ccnc2)c2ccc(OC)cc2)cc1 (stereo not shown) [SKF96365]
[1]; HEK293-APP, SKF96365 100 μM, nifedipine 1 μM, ω-conotoxin GVIA 1 μM, 12 hour treatment
  ratio of Aβ42/Aβtotal (Aβ42 generation): specifically elevated
[2]; CHO-APP, SKF96365 100 μM, nifedipine 1 μM, ω-conotoxin GVIA 1 μM, 12 hour treatment
  ratio of Aβ42/Aβtotal (Aβ42 generation): specifically elevated

## ω-conotoxin GVIA
[1]
  ratio of Aβ42/Aβtotal (Aβ42 generation): no significant effect
[2]
  ratio of Aβ42/Aβtotal (Aβ42 generation): no significant effect
